Where a name gives a salt, the structure may show the parent alone.
These compounds were tested against human FXa (Homo sapiens, UniProt P00742) (assay: Inhibitory action of human activated blood coagulation factor X (FXa)). Conditions: concentration inhibiting FXa activity by 50%; substrate S-2765, 37° C., absorbance at 405 nm.
Assay type: biochemical
Protocol: (1) Inhibitory Action of Human Activated Blood Coagulation Factor X (FXa):
Test method: A solution (225 μL) of 0.05M tris-hydrochloric acid buffers (pH=8.3) containing 0.145 M of sodium chloride and 2 mM of calcium chloride, a test compound dissolved in dimethyl sulfoxide (5 μL) and human FXa (10 μL, 0.3 unit/ml) were added to a 96-well microplate and reacted at 37° C. for about 10 minutes, and then a substrate (10 μL, 3 mM, S-2765) was added to be reacted at 37° C. for 10 minutes. Then, after aqueous 50% acetic acid (25 μL) was added there to stop the reaction, the change of absorbance at 405 nm was measured by a microplatereader, and a concentration inhibiting FXa activity by 50% (IC50) was calculated.

Sequence of human FXa (P00742 235-488 limits assumed): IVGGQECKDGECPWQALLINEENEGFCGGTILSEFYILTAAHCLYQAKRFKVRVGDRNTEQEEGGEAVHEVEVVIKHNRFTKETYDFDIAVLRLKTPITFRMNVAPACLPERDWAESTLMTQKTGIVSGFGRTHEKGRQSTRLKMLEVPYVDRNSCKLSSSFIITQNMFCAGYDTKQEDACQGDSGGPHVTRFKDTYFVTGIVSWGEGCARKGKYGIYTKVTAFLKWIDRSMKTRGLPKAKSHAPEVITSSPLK
Sequence of human FXa (P00742 41-179 partner limits assumed): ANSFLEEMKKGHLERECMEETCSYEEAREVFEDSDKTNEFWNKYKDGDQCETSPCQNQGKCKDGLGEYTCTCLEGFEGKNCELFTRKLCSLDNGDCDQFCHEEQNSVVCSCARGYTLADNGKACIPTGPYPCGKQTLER

Row | Compound | IC50 [nM]
1 | C/N=c1\sc(C2CCN(C(=O)CCS(=O)(=O)c3ccc4cc(Cl)ccc4c3)CC2)c(C(=O)O)n1C [Example 68, (2Z)-5-(1-(3-((6-Chloro-2-naphthyl)sulfonyl)propanoyl)-1-piperidinyl)-3-methyl-2-(methylimino)-2,3-dihydro-1,3-thiazole-4-carboxylic acid] | 8.3
2 | O=C(CCS(=O)(=O)c1ccc2cc(Cl)ccc2c1)N1CCC(/N=c2\sccn2CCO)CC1 [Example 92, 2-((2Z)-2-((1-(3-((6-Chloro-2-naphthyl)sulfonyl)propanoyl)-4-piperidinyl)imino)-1,3-thiazol-3(2H)-yl)ethanol] | 47
3 | C/N=c1\sccn1CCC1CCN(C(=O)CCS(=O)(=O)c2ccc3cc(Cl)ccc3c2)CC1 [Example 83] | 6.7
4 | N-((2Z)-5-(1-(3-((6-Chloro-2-naphthyl)sulfonyl)propanoyl)-1-piperidinyl)-3-methyl-1,3-thiazol-2(3H)-ylidene)-N-methylamine [Example 46] | 30
5 | COC(=O)C1CN(CC2=CSC3=NCCN23)CCN1C(=O)CCS(=O)(=O)c1ccc2cc(Cl)ccc2c1 (stereo not shown) [Example 44, Methyl 1-(3-((6-chloro-2-naphthyl)sulfonyl)propanoyl)-4-(5,6-dihydroimidazo[2,1-b][1,3]thiazol-3-ylmethyl)piperazine-2-carboxylate] | 14
6 | C/N=c1\sc(C2CCN(C(=O)CCS(=O)(=O)c3ccc4cc(Cl)ccc4c3)CC2)c(C(=O)OC)n1C [Example 77, Methyl (2Z)-5-(1-(3-((6-chloro-2-naphthyl)sulfonyl)propanoyl)-1-piperidinyl)-3-methyl-2-(methylimino)-2,3-dihydro-1,3-thiazol-4-carboxylate] | 9.4
7 | Cn1cc(C2CCN(C(=O)CCS(=O)(=O)c3ccc4cc(Cl)ccc4c3)CC2)sc1=N [Example 58, 5-(1-(3-((6-Chloro-2-naphthyl)sulfonyl)propanoyl)-4-piperidinyl)-3-methyl-1,3-thiazol-2(3H)-imine] | 60

Continued, values first:

Row | IC50 [nM] | Compound
8 | 11 | C/N=c1\sc(C2CCN(C(=O)CCS(=O)(=O)c3ccc4cc(Cl)ccc4c3)CC2)c(CO)n1C [Example 38]
9 | 57 | C/N=c1\scc(CN2CCN(C(=O)CCS(=O)(=O)c3ccc4cc(Cl)ccc4c3)CC2)n1C [Example 5, N-((2Z)-4-((4-(3-((6-Chloro-2-naphthyl)sulfonyl)propanoyl)-1-piperazinyl)methyl)-3-methyl-1,3-thiazol-2(3H)-ylidene)-N-methylamine dihydrochloride]
10 | 22 | Cn1c(CN2CCN(C(=O)CCS(=O)(=O)c3ccc4cc(Cl)ccc4c3)CC2)csc1=N [Example 12, 4-((4-(3-((6-Chloro-2-naphthyl)sulfonyl)propanoyl)-1-piperazinyl)methyl)-3-methyl-1,3-thiazol-2(3H)-imine dihydrochloride]
